We go through 54 compounds from BindingDB's records for doi:10.1021/acs.jmedchem.6b01196 (National Institute of Biological Sciences, 2017).

One experiment can be described thus: Inhibition of RIP1 in human HT-29 cells assessed as reduction in TNFalpha/z-VAD-FMK-induced necrosis after 24 hrs by Cell Titer-Glo luminescent cell viability assay. (In ATP-based viability assays light output follows the ATP content of the culture.)
One may read the EC50 as the midpoint of the concentration-response curve. Turning to `CCC(C)(C)C(=O)N(C)Cc1ccccc1F`, the EC50 was found to be 125 nM. Same read-out and setting: with `CCC(C)(C)C(=O)N(C)Cc1cc(F)cc(F)c1F` the figure was 12 nM.

Take `CCC(C)(C)C(=O)N(C)Cc1cccc(Cl)c1`: the EC50 came to 628 nM. Still for that read-out and setting: to `CCC(C)(C)C(=O)N(C)Cc1cccc(F)c1F` belongs 58 nM; to `CCC(C)(C)C(=O)NCc1ccccc1Br`, 8560 nM.

As to `CCC(C)(C)C(=O)N(C)Cc1ccncc1F`, the EC50 is above 10000 nM.

Test in another experiment: as above
The source holds these as a separate data set.
Take `CCC(C)(C)C(=O)N(O)Cc1cc(F)c(F)c(F)c1`: the EC50 came to 49 nM. Same read-out and setting: to `CCC(C)(C)C(=O)N(O)Cc1ccc(F)c(F)c1F` belongs 262 nM; to `CCC(C)(C)C(=O)N(O)Cc1ccc(F)cc1F`, 198 nM; to `CCC(C)(C)C(=O)N(O)Cc1ccc(F)cc1`, 64 nM. Still for that read-out and setting: with `CCC(C)(C)C(=O)N(O)Cc1ccccc1` the figure was 28 nM; with `CCC(C)(C)C(=O)NC1(c2ccccc2)CC1`, above 5000 nM. On to `CCC(C)(C)C(=O)N(C)C(CO)c1ccccc1` (stereo not given), for which the EC50 was above 10000 nM. `CCC(C)(C)C(=O)NC(CO)c1ccccc1` (stereo not given): the EC50 worked out at 1080 nM. Take `CCC(C)(C)C(=O)N(C)C(C)c1ccccc1` (stereo not given): the EC50 was above 10000 nM. On the same count and under the same terms, to `CCC(C)(C)C(=O)NC(C)c1ccccc1` (stereo not given) belongs above 10000 nM. Still for that read-out and setting: to `CC1CCCCN1C(=O)N(C)Cc1cc(F)cc(F)c1F` (stereo not given) belongs above 3000 nM; to `CC(C)N(C(=O)N(C)Cc1cc(F)cc(F)c1F)C(C)C`, above 3000 nM; to `CC(C)N(C)C(=O)N(C)Cc1cc(F)cc(F)c1F`, above 3000 nM. As to `CN(Cc1cc(F)cc(F)c1F)C(=O)C1(C)CCCCC1`, the half-maximal effective concentration (EC50) is 490 nM. Same read-out and setting: to `CN(Cc1cc(F)cc(F)c1F)C(=O)C1(C(F)(F)F)CCCC1` belongs 1230 nM; to `CN(Cc1cc(F)cc(F)c1F)C(=O)C1(C(F)(F)F)CCC1`, 656 nM; to `CN(Cc1cc(F)cc(F)c1F)C(=O)C1CCC1`, 8240 nM. For `CN(Cc1cc(F)cc(F)c1F)C(=O)C1(C)CC1`, the EC50 was above 10000 nM.

Consider `CN(Cc1cc(F)cc(F)c1F)C(=O)C(C)(C)CO`, for which the EC50 was above 3000 nM. For the compound `COC(C)(C)C(=O)N(C)Cc1cc(F)cc(F)c1F`, the EC50 is above 10000 nM. On the same count and under the same terms, with `CN(Cc1cc(F)cc(F)c1F)C(=O)C(C)(C)C` the figure was 98 nM. Turning to `CCC(C)(C)C(=O)N(C)Cc1ccn(C)n1`, the EC50 is above 10000 nM.

In the case of `CCC(C)(C)C(=O)N(C)Cc1cnc(C)s1`, the EC50 is above 10000 nM. On the same count and under the same terms, with `CCC(C)(C)C(=O)N(C)Cc1ccco1` the figure was 628 nM; with `CCC(C)(C)C(=O)N(C)Cc1ccc(C)s1`, 378 nM; with `CCC(C)(C)C(=O)N(C)Cc1sccc1C`, 2530 nM. For `CCC(C)(C)C(=O)N(C)Cc1cccs1`, the EC50 was 221 nM. The same measure, in the same setting: to `CCC(C)(C)C(=O)N(C)Cc1cccnc1` belongs 1740 nM. As to `CCC(C)(C)C(=O)N(C)Cc1ccncc1`, the concentration giving a half-maximal response (EC50) is above 10000 nM. Turning to `CCC(C)(C)C(=O)N(C)Cc1c(F)cc(F)cc1F`, the EC50 is 1250 nM. Consider `CCC(C)(C)C(=O)N(C)Cc1cc(F)ccc1F`, for which the EC50 was determined as 36 nM. On the same count and under the same terms, to `CCC(C)(C)C(=O)N(C)Cc1ccc(F)cc1F` belongs 627 nM; to `CCC(C)(C)C(=O)N(C)Cc1ccc(F)cc1`, 815 nM. Still for that read-out and setting: with `CCC(C)(C)C(=O)N(C)Cc1cccc(O)c1` the figure was above 3000 nM. Regarding `CCC(C)(C)C(=O)N(C)Cc1cccc(Br)c1`, the EC50 is 1230 nM. Turning to `CCC(C)(C)C(=O)N(C)Cc1cccc(F)c1`, the EC50 was 72 nM.

Take `CCC(C)(C)C(=O)N(C)Cc1ccccc1Cl`: the EC50 was above 10000 nM. On the same count and under the same terms, with `CCN(Cc1ccccc1F)C(=O)C(C)(C)CC` the figure was above 10000 nM.

As to `CCC(C)(C)C(=O)N(C)Cc1ccccc1`, the 50% effective concentration (EC50) is 457 nM. Still for that read-out and setting: to `CCC(C)(C)C(=O)NCc1cccc(Br)c1` belongs above 10000 nM; to `CCC(C)(C)C(=O)NCc1ccccc1F`, 898 nM. The same measure, in the same setting: with `CCC(C)(C)C(=O)NCc1ccccc1` the figure was 4100 nM; with `CCC(C)(C)C(=O)N(O)Cc1cc(F)cc(F)c1F`, 74 nM. As to `CCC(C)(C)C(=O)N(O)Cc1ccc(F)c(F)c1`, the EC50 was 56 nM.

On to `CCC(C)(C)C(=O)N(C)C(C)(C)c1ccccc1`, for which the EC50 was above 10000 nM. On to `CCC(C)(C)C(=O)NC(C)(C)c1ccccc1`, for which the EC50 is above 10000 nM. On to `CC1CCCC(C)N1C(=O)N(C)Cc1cc(F)cc(F)c1F` (stereo not given), for which the EC50 was determined as 1530 nM.

Regarding `CCC(C)(C)C(=O)N(C)Cc1cc(C)c(C)s1`, the EC50 is 1310 nM.

Another experiment can be described thus: Inhibition of RIP1 in mouse L929 cells assessed as reduction in TNFalpha/z-VAD-FMK-induced necrosis after 6 hrs by Cell Titer-Glo luminescent cell viability assay.
Consider `CCC(C)(C)C(=O)N(O)Cc1ccccc1`, for which the EC50 is 27 nM.
